Source: ChEMBL document CHEMBL1201862, “PubChem BioAssay data set” (2004)
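In this assay, cells in 96-well plates receive the compound at five concentrations for 48 hours. Endpoints are linearly interpolated between the surrounding concentrations. At the GI50, growth is halved.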 Calls of active or inactive are those of the source. No stated cut-off is given here; in the data, active = GI50 up to about 1.1 µM and inactive = higher.

Legend:
Test in all cases: NCI anticancer screen, dose series, 48 h
[1] = system: HCT-15
[2] = system: CCRF-CEM
[3] = system: A549
[4] = system: OVCAR-4
[5] = system: ACHN
[6] = system: HT-29
[7] = system: Malme-3M
[8] = system: IGROV-1
[9] = system: U-251
[10] = system: UACC-62
[11] = system: UO-31
[12] = system: SR
[13] = system: MOLT-4
[14] = system: OVCAR-3
[15] = system: A498
[16] = system: UACC-257

Measured: GI50

Oc1cc(-c2ccc3c(c2)OCO3)nc2cc3c(cc12)OCO3
inactive: [2] 31.7 µM | [3] 42.9 µM | [4] > 100 µM | [5] 46.1 µM | [6] 37.8 µM | [7] 21.2 µM | [8] > 100 µM | [9] 30.5 µM | [10] 36.9 µM | [11] > 100 µM | [12] 6.35 µM | [13] 59.8 µM
40.3 µM: [1]

COc1ccc(C(O)/C(=C/n2ccnc2)c2ccccc2)cc1OC (configuration not stated)
inactive: [2] > 100 µM | [3] > 100 µM | [4] > 100 µM | [5] > 100 µM | [6] > 100 µM | [7] > 100 µM | [14] > 100 µM | [8] > 100 µM | [15] > 100 µM | [16] > 100 µM | [9] > 100 µM | [10] > 100 µM | [11] > 100 µM | [12] > 100 µM | [13] > 100 µM
> 100 µM: [1]

C=CCNC(=O)NCCCCC(NC(C)=O)C(=O)NCc1ccccc1 (configuration not stated)
inactive: [2] > 100 µM | [3] > 100 µM | [4] > 100 µM | [5] > 100 µM | [6] > 100 µM | [7] > 100 µM | [14] > 100 µM | [8] > 100 µM | [15] > 100 µM | [16] > 100 µM | [9] > 100 µM | [10] > 100 µM | [11] > 100 µM | [13] > 100 µM
> 100 µM: [1]

CCC1(O)C(=O)OCc2c1cc1n(c2=O)Cc2c-1nc1ccccc1c2OC (configuration not stated)
0.117 µM: [1]
active: [2] < 0.01 µM | [3] < 0.0127 µM | [4] 0.187 µM | [5] < 0.01 µM | [6] 0.061 µM | [7] 0.15 µM | [14] 0.257 µM | [8] 0.174 µM | [15] 0.0513 µM | [16] 0.0575 µM | [9] < 0.01 µM | [10] < 0.01 µM | [11] < 0.0221 µM | [12] < 0.01 µM | [13] < 0.01 µM

COc1ccc2c(c1)Oc1cc(O)ccc1[C@@H]2c1ccccc1C(=O)NC(C)c1ccccc1 (some centres not stated)
inactive: [2] 15.8 µM | [3] 17.7 µM | [5] 15.6 µM | [6] 15.3 µM | [7] 15 µM | [14] 15.9 µM | [8] 18.2 µM | [15] 17.7 µM | [16] 14.8 µM | [9] 15 µM | [10] 13.6 µM | [11] 13.5 µM | [13] 5.73 µM
13.7 µM: [1]

N#C/C(=C1\SCC(=O)N1c1ccccc1)c1nc2ccccc2[nH]1
inactive: [2] > 100 µM | [3] > 100 µM | [4] > 100 µM | [5] > 100 µM | [6] > 100 µM | [7] > 100 µM | [14] > 100 µM | [8] > 100 µM | [15] > 100 µM | [16] > 100 µM | [9] > 100 µM | [10] > 100 µM | [11] > 100 µM | [13] > 100 µM
> 100 µM: [1]

CCOC(=O)C1=C(C)N(NC(N)=O)C2(N)N(NC(N)=O)C(C)=C(C(=O)OCC)C12C#N (configuration not stated)
inactive: [3] > 100 µM | [4] > 100 µM | [5] > 100 µM | [6] > 100 µM | [7] > 100 µM | [14] > 100 µM | [8] > 100 µM | [15] > 100 µM | [16] > 100 µM | [9] > 100 µM | [10] > 100 µM | [11] > 100 µM | [12] > 100 µM | [13] > 100 µM
> 100 µM: [1]

O=C1CC(O)C=C1Nc1ccc(Cl)cc1 (configuration not stated)
active: [10] 0.879 µM
inactive: [2] 11.4 µM | [3] 5.81 µM | [4] 60.1 µM | [5] 6.98 µM | [6] 13.7 µM | [7] 59.8 µM | [14] 71.6 µM | [8] 43.1 µM | [15] 13.8 µM | [16] 52.4 µM | [9] 49.3 µM | [11] 31.3 µM | [12] 19.1 µM | [13] 16.4 µM

COC(=O)N/N=C(\C(=O)Nc1cccc([N+](=O)[O-])c1)c1nc2ccc([N+](=O)[O-])cc2nc1O
inactive: [2] > 100 µM | [3] 42.9 µM | [4] > 100 µM | [5] 24.7 µM | [6] 60.7 µM | [7] > 100 µM | [14] 49.8 µM | [8] 64.6 µM | [16] > 100 µM | [10] 12.4 µM | [11] 14.5 µM | [12] > 100 µM | [13] 52.7 µM
